Earlier results in US20190307696A1, “TABLETS COMPRISING MIRABEGRON AND SOLIFENACIN” (SYNTHON B.V., priority 2016, published 2019).

Legend:
[1] = neutral to acidic pH
[2] = presence of food in the GI tract

Q: What does the source list for Nc1nc(CC(=O)Nc2ccc(CCNC[C@H](O)c3ccccc3)cc2)cs1 [Mirabegron]?
A: permeability (BCS): low permeability; solubility (BCS): high solubility; solubility in water [1]: soluble in water between neutral to acidic pH; bioavailability [2]: affected by the presence of food in the GI tract
